Measurements published in PMC3500438 (Organic letters, 2012).
“Also recorded” adds a separate entry of the source.

How the values were obtained:
rat PDE4 (Rolipram) = test: rat Rolipram radioligand binding; parameters: species or system Wistar rat; settings: for IC50: read-out: rat Rolipram IC50; for IC50 / Ki: Wistar rat brain, 1.8 nM [3H] rolipram, 1% DMSO, 60 min at 4 °C, 50 mM Tris-HCl, pH 7.4; for Ki: read-out: rat Rolipram Ki
5-HT2B = 5-HT2B (Homo sapiens, UniProt P41595); test: Lead Profiling screen radioligand binding, 5-HT2B
healthy cells = settings: cited from earlier work
[1] = cited from earlier work
[2] = test system: 97 kinases (both wild-type and mutants); test: KINOMEscan panel; type: binding; settings: 10 μM
[3] = test system: 68 GPCRs, ion channels and transporters; test: Lead Profiling screen; type: binding; settings: 10 μM, 68 targets

Sequence of 5-HT2B (P41595 whole entry, species assumed): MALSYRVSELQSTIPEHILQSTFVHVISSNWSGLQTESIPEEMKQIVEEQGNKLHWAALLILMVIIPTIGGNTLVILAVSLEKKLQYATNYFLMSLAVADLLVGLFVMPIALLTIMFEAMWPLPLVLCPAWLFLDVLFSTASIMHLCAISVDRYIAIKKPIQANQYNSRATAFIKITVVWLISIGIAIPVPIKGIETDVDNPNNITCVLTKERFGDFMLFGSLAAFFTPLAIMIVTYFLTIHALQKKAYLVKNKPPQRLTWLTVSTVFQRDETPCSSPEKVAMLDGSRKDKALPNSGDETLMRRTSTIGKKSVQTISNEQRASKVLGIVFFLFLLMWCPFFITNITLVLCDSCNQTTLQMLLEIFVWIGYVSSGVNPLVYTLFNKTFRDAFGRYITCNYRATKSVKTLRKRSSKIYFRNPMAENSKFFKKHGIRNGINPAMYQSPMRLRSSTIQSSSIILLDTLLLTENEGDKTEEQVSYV

SMILES | PDE4 activity (in words) (rat PDE4 (Rolipram); rat PDE4 (Rolipram) and human PDE4) | IC50 (rat PDE4 (Rolipram)) [µM] | Ki (rat PDE4 (Rolipram)) [µM] | 5-HT2B activity in radioligand binding panel (5-HT2B; 10 μM) [%] | Ki (5-HT2B; read-out: 5-HT2B Ki, full concentration-response-curve) [µM] | toxicity to healthy cells / cytotoxicity (healthy cells) | antimalarial activity [1] | activity in KINOMEscan panel [2] | ancillary pharmacology in Lead Profiling screen [3] | PDE4/Rolipram activity in radioligand binding panel (rat PDE4 (Rolipram); 10 μM) [%]
Cc1nc2ccccc2c2cc[nH]c12 [compound 1, marinoquinoline A] | inactive | > 100 | > 100 | – | – | – | – | – | – | –
Nc1ncnc2c1ncn2Cc1nc2ccccc2c2cc[nH]c12 [compound 6, aplidiopsamine A] | – | 3.3 | 1.2 | 62 | ~10 | without toxicity to healthy cells; also recorded: not be cytotoxic | potent antimalarial agent | uniformly inactive | activity at only two targets | 74
